Source: ChEMBL document CHEMBL5729195, “Heterocyclic compounds useful as aurora a selective inhibitors” (2022)

Molecular target: T1, Aurora kinase A (Homo sapiens, UniProt O14965)
T1 sequence (O14965 whole entry): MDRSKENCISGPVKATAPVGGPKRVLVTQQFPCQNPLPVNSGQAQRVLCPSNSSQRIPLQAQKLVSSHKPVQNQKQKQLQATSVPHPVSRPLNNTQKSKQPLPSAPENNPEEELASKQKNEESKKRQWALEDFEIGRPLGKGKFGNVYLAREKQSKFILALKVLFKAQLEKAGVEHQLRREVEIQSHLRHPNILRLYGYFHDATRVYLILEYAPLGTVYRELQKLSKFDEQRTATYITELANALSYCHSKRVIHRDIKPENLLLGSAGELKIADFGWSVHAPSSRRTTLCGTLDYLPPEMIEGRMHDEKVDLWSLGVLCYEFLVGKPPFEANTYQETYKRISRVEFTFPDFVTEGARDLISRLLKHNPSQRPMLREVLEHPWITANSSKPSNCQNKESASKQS
Experiment: The testing compound was diluted up to 100× final concentration in a 384-well plate. Transfer 250 nL of the compound dilution to a 384-well assay plate using Echo 550.

IC50: 1.1 nM
Compound: Cc1cc(Nc2cc(F)cc(C[C@@]3(C(=O)O)CCN(Cc4cccc(Cl)c4F)[C@H](C)C3)n2)n[nH]1
